The source of these data is ChEMBL document CHEMBL5465560, “Selectivity Literature for EUbOPEN Chemogenomic Library” (2024).

Assay [1] concerns the target Tyrosine-protein kinase BTK (Homo sapiens, UniProt Q06187). Description: Selectivity interaction (Kinase panel (Z-LYTE Assay)) EUB0001632a BTK. As to conditions: at 10 µM.
Assay [2] deals with T1, NUAK family SNF1-like kinase 2 (Homo sapiens) (UniProt Q9H093).
T1 sequence (whole entry): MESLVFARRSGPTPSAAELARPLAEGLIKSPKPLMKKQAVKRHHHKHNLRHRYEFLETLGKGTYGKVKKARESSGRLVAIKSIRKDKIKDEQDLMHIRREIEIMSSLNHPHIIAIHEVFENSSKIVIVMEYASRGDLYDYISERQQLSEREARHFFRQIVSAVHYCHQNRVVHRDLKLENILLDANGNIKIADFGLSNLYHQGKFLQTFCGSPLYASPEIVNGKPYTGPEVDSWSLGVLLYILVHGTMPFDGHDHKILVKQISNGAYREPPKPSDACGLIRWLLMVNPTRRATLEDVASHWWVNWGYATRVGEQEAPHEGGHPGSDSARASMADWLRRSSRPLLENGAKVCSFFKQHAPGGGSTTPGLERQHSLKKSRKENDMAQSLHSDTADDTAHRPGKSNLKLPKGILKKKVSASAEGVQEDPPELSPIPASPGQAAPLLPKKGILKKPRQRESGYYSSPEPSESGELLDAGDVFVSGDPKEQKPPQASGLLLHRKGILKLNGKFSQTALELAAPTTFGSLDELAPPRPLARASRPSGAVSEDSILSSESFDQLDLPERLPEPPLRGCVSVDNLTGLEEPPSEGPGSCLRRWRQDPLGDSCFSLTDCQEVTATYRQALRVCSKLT
Description: Selectivity interaction (KinomeScan (DiscoverX)) EUB0000595a NUAK2. As to conditions: at 10 µM.

The target of assay [3] is T2, Cyclin-G-associated kinase (Homo sapiens) (UniProt O14976).
T2 sequence (whole entry): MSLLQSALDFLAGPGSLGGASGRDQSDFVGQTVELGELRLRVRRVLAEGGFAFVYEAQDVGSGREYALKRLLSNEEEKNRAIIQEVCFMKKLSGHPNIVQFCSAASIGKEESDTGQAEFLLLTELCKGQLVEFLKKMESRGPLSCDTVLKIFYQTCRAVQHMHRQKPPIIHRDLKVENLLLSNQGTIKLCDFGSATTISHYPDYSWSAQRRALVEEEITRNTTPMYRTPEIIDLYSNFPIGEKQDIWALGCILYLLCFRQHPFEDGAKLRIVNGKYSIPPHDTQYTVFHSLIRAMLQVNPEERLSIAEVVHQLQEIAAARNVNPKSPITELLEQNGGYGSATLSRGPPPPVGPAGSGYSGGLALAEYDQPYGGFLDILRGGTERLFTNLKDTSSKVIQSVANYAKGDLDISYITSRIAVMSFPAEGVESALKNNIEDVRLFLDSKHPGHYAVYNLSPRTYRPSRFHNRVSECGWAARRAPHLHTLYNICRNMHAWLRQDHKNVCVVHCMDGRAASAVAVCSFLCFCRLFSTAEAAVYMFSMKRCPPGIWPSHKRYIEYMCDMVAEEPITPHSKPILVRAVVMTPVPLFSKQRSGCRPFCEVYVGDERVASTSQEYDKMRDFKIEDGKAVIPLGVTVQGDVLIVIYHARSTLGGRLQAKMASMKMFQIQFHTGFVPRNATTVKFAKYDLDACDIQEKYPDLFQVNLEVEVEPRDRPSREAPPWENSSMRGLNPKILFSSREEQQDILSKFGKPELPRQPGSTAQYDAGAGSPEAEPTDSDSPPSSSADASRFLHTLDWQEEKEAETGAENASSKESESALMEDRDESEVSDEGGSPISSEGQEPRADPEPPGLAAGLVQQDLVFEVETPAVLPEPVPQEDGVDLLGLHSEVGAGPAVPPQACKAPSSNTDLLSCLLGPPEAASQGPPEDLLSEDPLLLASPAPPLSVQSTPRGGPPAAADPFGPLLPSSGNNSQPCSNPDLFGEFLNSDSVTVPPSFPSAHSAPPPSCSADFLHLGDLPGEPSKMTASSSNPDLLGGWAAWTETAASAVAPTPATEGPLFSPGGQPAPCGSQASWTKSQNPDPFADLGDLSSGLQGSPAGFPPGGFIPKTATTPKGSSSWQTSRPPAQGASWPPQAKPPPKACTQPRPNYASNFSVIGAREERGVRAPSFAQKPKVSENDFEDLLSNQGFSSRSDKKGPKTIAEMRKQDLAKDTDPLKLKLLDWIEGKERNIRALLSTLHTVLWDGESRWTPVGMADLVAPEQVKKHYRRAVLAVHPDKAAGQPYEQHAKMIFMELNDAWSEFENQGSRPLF
Description: Selectivity interaction (KinomeScan (DiscoverX)) EUB0001619a GAK. As to conditions: at 1 µM.

In assay [4] the target is Mitogen-activated protein kinase kinase kinase 1 (Homo sapiens, UniProt Q13233). Description: Selectivity interaction (KinomeScan (DiscoverX)) EUB0001619a MAP3K1. As to conditions: at 1 µM.
Mitogen-activated protein kinase kinase kinase 1, sequence (Q13233 whole entry): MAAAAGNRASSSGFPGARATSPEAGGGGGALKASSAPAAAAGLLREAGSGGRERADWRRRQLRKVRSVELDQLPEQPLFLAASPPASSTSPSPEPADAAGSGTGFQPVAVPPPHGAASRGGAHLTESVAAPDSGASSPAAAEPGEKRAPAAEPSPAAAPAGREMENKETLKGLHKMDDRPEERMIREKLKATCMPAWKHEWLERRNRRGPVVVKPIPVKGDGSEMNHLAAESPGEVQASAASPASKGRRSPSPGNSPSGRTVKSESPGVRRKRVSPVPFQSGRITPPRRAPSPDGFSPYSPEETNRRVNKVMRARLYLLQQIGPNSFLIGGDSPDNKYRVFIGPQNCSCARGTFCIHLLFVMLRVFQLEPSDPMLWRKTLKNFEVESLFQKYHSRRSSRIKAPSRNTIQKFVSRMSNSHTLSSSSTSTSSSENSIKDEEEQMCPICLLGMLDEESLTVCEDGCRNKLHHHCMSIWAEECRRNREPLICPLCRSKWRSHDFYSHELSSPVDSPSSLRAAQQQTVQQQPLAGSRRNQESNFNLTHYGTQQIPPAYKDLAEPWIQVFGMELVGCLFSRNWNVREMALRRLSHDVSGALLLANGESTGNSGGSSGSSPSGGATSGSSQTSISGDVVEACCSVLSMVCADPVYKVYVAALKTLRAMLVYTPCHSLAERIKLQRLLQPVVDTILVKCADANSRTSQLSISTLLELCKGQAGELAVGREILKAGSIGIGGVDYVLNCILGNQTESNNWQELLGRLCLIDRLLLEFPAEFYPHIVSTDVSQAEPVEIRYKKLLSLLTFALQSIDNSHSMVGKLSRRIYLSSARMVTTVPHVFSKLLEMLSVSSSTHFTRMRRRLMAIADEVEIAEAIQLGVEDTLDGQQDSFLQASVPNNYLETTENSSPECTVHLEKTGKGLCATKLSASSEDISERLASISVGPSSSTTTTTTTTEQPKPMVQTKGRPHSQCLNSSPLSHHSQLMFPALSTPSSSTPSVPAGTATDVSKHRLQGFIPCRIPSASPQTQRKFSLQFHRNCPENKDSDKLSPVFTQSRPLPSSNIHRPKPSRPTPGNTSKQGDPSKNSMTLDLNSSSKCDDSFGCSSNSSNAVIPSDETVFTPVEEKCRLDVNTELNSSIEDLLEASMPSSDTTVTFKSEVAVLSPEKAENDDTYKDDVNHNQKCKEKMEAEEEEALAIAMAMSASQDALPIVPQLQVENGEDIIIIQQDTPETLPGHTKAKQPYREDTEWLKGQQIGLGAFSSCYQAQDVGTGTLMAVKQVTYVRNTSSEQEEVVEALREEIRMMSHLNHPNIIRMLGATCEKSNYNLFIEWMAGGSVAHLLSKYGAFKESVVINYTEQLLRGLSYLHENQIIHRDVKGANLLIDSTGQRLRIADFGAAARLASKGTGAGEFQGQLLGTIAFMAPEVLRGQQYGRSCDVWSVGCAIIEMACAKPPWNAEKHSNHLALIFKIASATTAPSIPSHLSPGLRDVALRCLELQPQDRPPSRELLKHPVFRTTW
Assay [5] addresses T3, Serine/threonine-protein kinase TBK1 (Homo sapiens) (UniProt Q9UHD2).
T3 sequence (whole entry): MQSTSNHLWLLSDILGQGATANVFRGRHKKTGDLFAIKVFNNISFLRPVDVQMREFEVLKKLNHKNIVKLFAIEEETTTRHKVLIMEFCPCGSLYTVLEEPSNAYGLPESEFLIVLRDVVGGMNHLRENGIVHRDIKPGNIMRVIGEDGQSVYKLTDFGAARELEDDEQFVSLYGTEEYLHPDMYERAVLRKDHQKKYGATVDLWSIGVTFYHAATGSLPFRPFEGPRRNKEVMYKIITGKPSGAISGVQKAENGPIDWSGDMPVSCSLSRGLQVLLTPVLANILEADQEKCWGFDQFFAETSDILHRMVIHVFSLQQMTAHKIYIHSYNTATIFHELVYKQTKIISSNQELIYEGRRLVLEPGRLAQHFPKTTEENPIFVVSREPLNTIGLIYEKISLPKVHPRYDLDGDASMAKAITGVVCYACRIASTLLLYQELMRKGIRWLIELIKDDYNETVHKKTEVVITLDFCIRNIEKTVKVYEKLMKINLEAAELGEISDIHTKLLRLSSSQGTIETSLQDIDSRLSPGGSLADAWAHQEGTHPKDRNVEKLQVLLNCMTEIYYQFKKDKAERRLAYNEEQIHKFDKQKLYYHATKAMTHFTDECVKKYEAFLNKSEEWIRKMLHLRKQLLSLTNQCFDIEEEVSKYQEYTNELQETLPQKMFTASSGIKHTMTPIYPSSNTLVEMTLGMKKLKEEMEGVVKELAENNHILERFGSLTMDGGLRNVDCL
Put plainly: Selectivity interaction (KinomeScan (DiscoverX)) EUB0000092b TBK1. As to conditions: at 10 µM.

The target in assay [6] is Tyrosine-protein kinase Lck (Homo sapiens, UniProt P06239). Description: Selectivity interaction (Millipore kinase profiler) EUB0000124b LCK. As to conditions: at 10 µM.
Tyrosine-protein kinase Lck, sequence (P06239 2-509 limits assumed): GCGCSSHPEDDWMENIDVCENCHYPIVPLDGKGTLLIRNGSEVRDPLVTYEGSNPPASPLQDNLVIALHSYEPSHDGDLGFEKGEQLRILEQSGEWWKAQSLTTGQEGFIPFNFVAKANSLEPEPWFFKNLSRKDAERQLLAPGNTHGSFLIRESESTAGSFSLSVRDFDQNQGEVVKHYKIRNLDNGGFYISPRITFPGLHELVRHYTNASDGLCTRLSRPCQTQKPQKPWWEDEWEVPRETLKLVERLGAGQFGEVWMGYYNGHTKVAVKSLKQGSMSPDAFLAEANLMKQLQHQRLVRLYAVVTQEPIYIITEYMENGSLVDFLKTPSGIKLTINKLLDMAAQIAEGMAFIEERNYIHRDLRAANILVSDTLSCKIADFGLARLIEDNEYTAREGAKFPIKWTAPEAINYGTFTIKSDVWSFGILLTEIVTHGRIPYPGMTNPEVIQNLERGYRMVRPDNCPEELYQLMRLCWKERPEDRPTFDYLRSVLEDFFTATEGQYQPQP
Assay [7] addresses Serine/threonine-protein kinase 24 (Homo sapiens) (UniProt Q9Y6E0). Put plainly: Selectivity interaction (Kinase panel (KiNativ target engagement assay in Jurkat cells)) EUB0001635a STK24. The assay is classed as cell-based. As to conditions: Selectivity number of off-targets 0.0, Selectivity number of targets 233.0, Source Knowledge https://www.sciencedirect.com/science/article/pii/S2451945619300674?via%3Dihub, at 1 µM.

Tyrosine-protein kinase BTK, sequence (Q06187 whole entry): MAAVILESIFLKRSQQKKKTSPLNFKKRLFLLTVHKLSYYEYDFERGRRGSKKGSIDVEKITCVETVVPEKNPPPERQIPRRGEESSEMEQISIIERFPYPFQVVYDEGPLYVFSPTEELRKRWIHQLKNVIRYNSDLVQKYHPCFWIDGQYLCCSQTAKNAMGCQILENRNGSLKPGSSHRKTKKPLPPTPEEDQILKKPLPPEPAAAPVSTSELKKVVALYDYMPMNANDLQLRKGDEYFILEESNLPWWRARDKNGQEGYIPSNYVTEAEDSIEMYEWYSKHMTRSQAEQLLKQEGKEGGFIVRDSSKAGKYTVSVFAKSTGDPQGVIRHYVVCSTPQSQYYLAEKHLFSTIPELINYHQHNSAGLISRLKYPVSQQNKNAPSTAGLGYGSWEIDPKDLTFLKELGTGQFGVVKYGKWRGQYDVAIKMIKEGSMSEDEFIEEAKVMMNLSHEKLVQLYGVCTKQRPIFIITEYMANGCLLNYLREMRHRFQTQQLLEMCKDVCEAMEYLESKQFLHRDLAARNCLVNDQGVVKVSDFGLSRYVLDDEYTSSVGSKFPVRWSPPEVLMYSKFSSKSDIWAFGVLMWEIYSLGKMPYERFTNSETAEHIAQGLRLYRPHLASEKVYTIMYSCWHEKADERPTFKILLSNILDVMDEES
Serine/threonine-protein kinase 24 (Homo sapiens), sequence (Q9Y6E0 whole entry, looked up): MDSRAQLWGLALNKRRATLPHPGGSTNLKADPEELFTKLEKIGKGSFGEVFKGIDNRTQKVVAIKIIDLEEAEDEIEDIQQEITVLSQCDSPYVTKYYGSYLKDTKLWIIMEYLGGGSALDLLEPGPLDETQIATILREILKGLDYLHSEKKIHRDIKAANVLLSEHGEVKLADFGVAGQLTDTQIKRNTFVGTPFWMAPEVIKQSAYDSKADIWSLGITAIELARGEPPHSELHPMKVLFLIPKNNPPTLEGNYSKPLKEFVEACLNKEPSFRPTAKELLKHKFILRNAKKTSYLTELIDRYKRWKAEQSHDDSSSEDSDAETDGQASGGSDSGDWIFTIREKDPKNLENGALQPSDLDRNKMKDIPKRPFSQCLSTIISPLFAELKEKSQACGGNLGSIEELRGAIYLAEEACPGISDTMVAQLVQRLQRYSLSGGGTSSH

On to `Cn1cc(-n2cnc3c(NCc4nc5cc(Cl)c(Cl)cc5[nH]4)nc(N4CCOCC4)nc32)cn1`, for which the % of control in assay [1] was -7.51%.
Turning to `COCC(=O)NC/C=C/c1ccc2ncnc(Nc3ccc(Oc4ccc(C)nc4)c(C)c3)c2c1` [CP-724714], in assay [2], the % of control was determined as 100%.
As to `N#Cc1cccc(-c2c[nH]c3ncnc(N4CCOCC4)c23)c1`, the % of control in assay [3] amounted to 100%; in assay [4], 82%.
In the case of `CCC(=O)N1CCN(c2ccc(-n3c(=O)ccc4cnc5ccc(-c6cnc7ccccc7c6)cc5c43)cc2C(F)(F)F)CC1`, in assay [5], the % of control came out at 93%.
On to `CC(=O)Nc1cccc(-n2c(=O)n(C3CC3)c(=O)c3c(Nc4ccc(I)cc4F)n(C)c(=O)c(C)c32)c1`, for which, in assay [6], the % of control was 110%.
For the molecule `C=CC(=O)Nc1ccc(C(=O)Nc2[nH]nc3c2CN(C(=O)N[C@H](CN(C)C)c2ccccc2)C3(C)C)cc1`, in assay [7], the % of engagement is 24%.
